Reference: patent US6310210A, “Camptothecin derivatives” (Kabushiki Kaisha Yakult Honsha, priority 1997, dated 2001)
Converted amounts (≈) assume the structure as drawn.

Key:
mouse leukemia L1210 = assay: Anti-tumor activity: life prolonging effect in mice transplanted intraperitoneally with mouse leukemia L1210 (T/C%); format: in vivo; conditions: for Anti-tumor activity (T/C%): i.p. day 1, 5 and 9
Method: 5×10^5 cells of mouse leukemia L1210 were transplanted intraperitoneally to a group of six female CDP1 mice (7 weeks old, body weight 17-19 g). A test substance was administered intraperitoneally on day 1, 5 and 9, and its life prolonging effect was observed. In a case of the administration of a test substance as an acid addition salt, it was dissolved in purified water. The total administration amount was 1.56-400 mg/kg. The anti-tumor activity was expressed by the value (T/C%) in which the ratio of the mean survival days of a drug administered group (T) to the mean survival days of a not administered group (C) is multiplied by 100.

[1] = Stability test in water at each pH (phosphate buffer, HPLC); format: physicochemical; conditions: for Amount of the compound in test solution: room temperature (about 26° C.)
Method: 1) Preparation of calibration curve:
1.05 mg of the compound 1 and 1.10 mg of the compound A (Note) were measured, dissolved in acetonitrile 10 ml to give a standard solution. 20 μl of the standard solution was tested by HPLC method (procedure condition 1). The peak area of the compound 1 and the compound A (Note), which is obtained from the chromatograph of the standard solution is measured by an automatic integration method, and the obtained area is plotted against an amount of the compound 1 and the compound A (2.1 μg and 2.2 μg) by 20 μl to prepare a calibration curve.
[HPLC method, procedure condition 1]
Column: Inertsil ODS-3 (5-250), 40 deg.
Mobile phase: 0.01 M potassium dihydrogenphosphate-acetonitrile (3:1)
Detection: UV absorptiometer (254 nm)
About 1 mg (×3) of the compound 1 were measured, dissolved adding a phosphate buffer 10 ml of pH 10.0, 7.0 or 5.4, stirred at room temperature (about 26° C.) to make a test solution. As to each 20 μl of the test solution at the time of dissolution, 3 hr later and 24 hr later, the tests were carried out by the HPLC method (procedure condition 1). The amounts of the compound 1 were measured from the obtained area. The amounts of the compound A in each pH were measured.
The amounts (μg/ml) of the compound 1 and the compound A at the time of dissolution, 3 hr later and 24 hr later in each pH are shown in Table 7.

[2] = Solubility of each hydrochloride in purified water; format: physicochemical
Method: A corresponding camptothecin-21-(2-dimethylamino) ethylamide derivative (100-200 mg) was added with an aqueous 0.1 N HCl solution (1.05 eq.) and dissolved, if necessary, further by adding purified water. The solution was filtered using MILLEX-GV ([…] Filter Unit), and the filtrate was lyophilized to give the desired hydrochloride.
Table 1: Solubility of each hydrochloride in purified water

CCc1c2c(nc3ccccc13)-c1cc([C@@](O)(CC)C(=O)NCCN(C)C)c(COC(=O)NC)c(=O)n1C2 [Compound 1, 7-Ethyl-17-methylcarbamoyloxycamptothecin-21-(2-dimethylamino)ethylamide]
Anti-tumor activity (T/C%) (mouse leukemia L1210; Table 2, total dose 3.13 mg/kg): 97% | Anti-tumor activity (T/C%) (mouse leukemia L1210; Table 2, total dose 6.25 mg/kg): 97% | Anti-tumor activity (T/C%) (mouse leukemia L1210; Table 2, total dose 12.5 mg/kg): 95% | Anti-tumor activity (T/C%) (mouse leukemia L1210; Table 2, total dose 25 mg/kg): 97% | Anti-tumor activity (T/C%) (mouse leukemia L1210; Table 2, total dose 50 mg/kg): 97% | Anti-tumor activity (T/C%) (mouse leukemia L1210; Table 2, total dose 100 mg/kg): 139% | Anti-tumor activity (T/C%) (mouse leukemia L1210; Table 2, total dose 200 mg/kg): 145% | Amount of the compound in test solution ([1]; pH 5.4, 3 hr later): 118 µg/mL | Amount of the compound in test solution ([1]; pH 5.4, 24 hr later): 118 µg/mL | Amount of the compound in test solution ([1]; pH 5.4, at the time of dissolution): 118 µg/mL | Amount of the compound in test solution ([1]; pH 7.0, 3 hr later): 105 µg/mL | Amount of the compound in test solution ([1]; pH 7.0, 24 hr later): 105 µg/mL | Amount of the compound in test solution ([1]; pH 7.0, at the time of dissolution): 105 µg/mL | Stability in aqueous solution (in words) ([1]; pH 7.0 and 5.4, room temperature): stably present at room temperature | Amount of the compound in test solution ([1]; pH 10.0, 3 hr later): 106 µg/mL | Amount of the compound in test solution ([1]; pH 10.0, 24 hr later): 97 µg/mL | Amount of the compound in test solution ([1]; pH 10.0, at the time of dissolution): 109 µg/mL | remaining at 24 h ([1]; phosphate buffer, pH 10.0, after 24 hr, read-out: remained in the aqueous solution): 89% | solubility [2]: ≥ 50 mg/mL

CCc1c2c(nc3ccccc13)-c1cc([C@@](O)(CC)C(=O)NCCN(C)C)c(COC(=O)NC(C)C)c(=O)n1C2 [Compound 4, 7-Ethyl-17-iso-propylcarbamoyloxycamptothecin-21-(2-dimethylamino)ethylamide]
Anti-tumor activity (T/C%) (mouse leukemia L1210; Table 4, total dose 3.13 mg/kg): 121% | Anti-tumor activity (T/C%) (mouse leukemia L1210; Table 4, total dose 6.25 mg/kg): 123% | Anti-tumor activity (T/C%) (mouse leukemia L1210; Table 4, total dose 12.5 mg/kg): 121% | Anti-tumor activity (T/C%) (mouse leukemia L1210; Table 4, total dose 25 mg/kg): 123% | Anti-tumor activity (T/C%) (mouse leukemia L1210; Table 4, total dose 50 mg/kg): 149% | Anti-tumor activity (T/C%) (mouse leukemia L1210; Table 4, total dose 100 mg/kg): 205% | Anti-tumor activity: fraction in parentheses after T/C% (meaning not given) (mouse leukemia L1210; Table 4, total dose 200 mg/kg, group of six mice): 1/6 | Anti-tumor activity (T/C%) (mouse leukemia L1210; Table 4, total dose 200 mg/kg): 323% | solubility [2]: ~50 mg/mL (≈ 91 mM)
